Results from the supplement of paper PMC8617591.

How the values were obtained:
[1] = tested on: Mycobacterium tuberculosis Erdman (autoluminescent); experiment: FIC90 (Loewe) at 90% inhibition (log2); higher = more antagonistic
Description: (§1)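 DiaMOND equipotent two-drug combination dose responses against autoluminescent M. tuberculosis Erdman in 8 in vitro models. Read-out is OD600, or luminescence for the intracellular and dormancy models, normalised to untreated wells. Hill-fit Einf, AUC25 and GRinf are potency metrics; FIC50 and FIC90 are Loewe-additivity fractional inhibitory concentrations, given as log2 (negative = synergy). Replicates are averaged.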

[2] = tested on: Mycobacterium tuberculosis Erdman (autoluminescent); experiment: FIC50 (Loewe) at 50% inhibition (log2); higher = more antagonistic
Description: as §1

[3] = tested on: Mycobacterium tuberculosis Erdman (autoluminescent); experiment: Einf, fitted maximum growth inhibition of combination (fraction); higher = stronger maximal inhibition
Description: as §1

[4] = tested on: Mycobacterium tuberculosis Erdman (autoluminescent); experiment: AUC25, normalised area under dose response up to IC25 (fraction (0-1)); higher = more potent at low dose
Description: as §1

[5] = tested on: Mycobacterium tuberculosis Erdman (autoluminescent); experiment: GRinf, maximum normalised growth rate inhibition (unitless (-1 to 1)); higher = less effect (negative = killing)
Description: as §1

CC(C)/N=c1\cc2n(-c3ccc(Cl)cc3)c3ccccc3nc-2cc1Nc1ccc(Cl)cc1 [clofazimine] + NC(=O)c1cnccn1 [pyrazinamide]
Settings | AUC25, [4] | Einf, [3] | FIC50, [2] | FIC90, [1] | GRinf, [5]
in vitro model: acidic pH 5.7, time point: constant (~7 days, model-specific) | 0.0987 | 0.807 | -0.0856 | – | -0.109
in vitro model: acidic pH 5.7, time point: terminal (~4-5 doublings, model-specific) | 0.106 | 0.98 | -0.519 | -0.794 | -0.397
in vitro model: intracellular J774, time point: constant = terminal | – | 0.996 | – | 0.158 | -0.38

Settings | AUC25, [4] | Einf, [3] | FIC50, [2] | FIC90, [1] | GRinf, [5]
in vitro model: butyrate, time point: constant (~7 days, model-specific) | 0.116 | 0.922 | -0.639 | 0.884 | -0.0318
in vitro model: butyrate, time point: terminal (~4-5 doublings, model-specific) | 0.0881 | 0.958 | -0.58 | -0.361 | -0.00889
in vitro model: cholesterol 0.05 mM, time point: constant (~7 days, model-specific) | 0.146 | 0.653 | – | – | -0.153
in vitro model: cholesterol 0.05 mM, time point: terminal (~4-5 doublings, model-specific) | 0.143 | 0.923 | 0.474 | – | -0.338
in vitro model: cholesterol-high 0.2 mM, time point: constant (~7 days, model-specific) | 0.116 | 0.896 | 0.166 | – | -0.475
in vitro model: cholesterol-high 0.2 mM, time point: terminal (~4-5 doublings, model-specific) | 0.0971 | 1 | 0.233 | 0.114 | -0.881
in vitro model: dormancy (butyrate + nitrate, low O2), time point: constant (~7 days, model-specific) | 0.12 | 0.935 | -0.722 | -0.326 | -0.0386
in vitro model: dormancy (butyrate + nitrate, low O2), time point: terminal (~4-5 doublings, model-specific) | 0.0754 | 0.989 | -0.936 | -0.669 | -0.387
in vitro model: standard 7H9 glycerol, time point: constant = terminal | 0.11 | 0.96 | -0.68 | – | -0.102
in vitro model: valerate, time point: constant (~7 days, model-specific) | 0.143 | 0.885 | -0.679 | – | -0.366
in vitro model: valerate, time point: terminal (~4-5 doublings, model-specific) | 0.0829 | 0.938 | 0.0438 | 0.152 | 0.0893

CC(C)/N=c1\cc2n(-c3ccc(Cl)cc3)c3ccccc3nc-2cc1Nc1ccc(Cl)cc1 [clofazimine] + NNC(=O)c1ccncc1 [isoniazid]
Settings | AUC25, [4] | Einf, [3] | FIC50, [2] | FIC90, [1] | GRinf, [5]
in vitro model: acidic pH 5.7, time point: constant (~7 days, model-specific) | 0.1 | 0.747 | 0.122 | – | 0.074
in vitro model: acidic pH 5.7, time point: terminal (~4-5 doublings, model-specific) | 0.0893 | 0.942 | 0.116 | 0.154 | -0.114
in vitro model: intracellular J774, time point: constant = terminal | – | 0.951 | – | 0.406 | -0.209

Settings | AUC25, [4] | Einf, [3] | FIC50, [2] | FIC90, [1] | GRinf, [5]
in vitro model: butyrate, time point: constant (~7 days, model-specific) | 0.0814 | 0.947 | 0.425 | 0.813 | -0.079
in vitro model: butyrate, time point: terminal (~4-5 doublings, model-specific) | 0.0801 | 0.988 | 0.35 | 0.54 | -0.117
in vitro model: cholesterol 0.05 mM, time point: constant (~7 days, model-specific) | 0.114 | 0.719 | 0.223 | – | -0.06
in vitro model: cholesterol 0.05 mM, time point: terminal (~4-5 doublings, model-specific) | 0.126 | 0.928 | 0.688 | 0.0937 | -0.181
in vitro model: cholesterol-high 0.2 mM, time point: constant (~7 days, model-specific) | 0.118 | 0.93 | 0.123 | -0.0588 | -0.856
in vitro model: cholesterol-high 0.2 mM, time point: terminal (~4-5 doublings, model-specific) | 0.106 | 0.999 | 0.197 | 0.419 | -0.882
in vitro model: dormancy (butyrate + nitrate, low O2), time point: constant (~7 days, model-specific) | 0.0958 | 0.92 | -0.176 | -0.0674 | 0.255
in vitro model: dormancy (butyrate + nitrate, low O2), time point: terminal (~4-5 doublings, model-specific) | 0.058 | 0.981 | -0.116 | -0.0457 | -0.0683
in vitro model: standard 7H9 glycerol, time point: constant = terminal | 0.105 | 0.964 | -0.0807 | 0.0617 | -0.146
in vitro model: valerate, time point: constant (~7 days, model-specific) | 0.144 | 0.925 | 0.0757 | 1.95 | -0.0991
in vitro model: valerate, time point: terminal (~4-5 doublings, model-specific) | 0.0841 | 0.937 | -0.0577 | 0.814 | 0.0302

CC(C)/N=c1\cc2n(-c3ccc(Cl)cc3)c3ccccc3nc-2cc1Nc1ccc(Cl)cc1 [clofazimine] + O=[N+]([O-])c1cn2c(n1)OC[C@@H](OCc1ccc(OC(F)(F)F)cc1)C2 [pretomanid]
Settings | AUC25, [4] | Einf, [3] | FIC50, [2] | FIC90, [1] | GRinf, [5]
in vitro model: acidic pH 5.7, time point: constant (~7 days, model-specific) | 0.134 | 0.778 | -0.0507 | – | -0.287
in vitro model: acidic pH 5.7, time point: terminal (~4-5 doublings, model-specific) | 0.108 | 0.974 | -0.167 | 0.503 | -0.285
in vitro model: intracellular J774, time point: constant = terminal | – | 0.997 | – | 0.0803 | -0.541

Settings | AUC25, [4] | Einf, [3] | FIC50, [2] | FIC90, [1] | GRinf, [5]
in vitro model: butyrate, time point: constant (~7 days, model-specific) | 0.117 | 0.967 | 0.464 | 1.35 | -0.167
in vitro model: butyrate, time point: terminal (~4-5 doublings, model-specific) | 0.111 | 0.995 | 0.356 | 1.26 | -0.159
in vitro model: cholesterol 0.05 mM, time point: constant (~7 days, model-specific) | 0.12 | 0.704 | 0.602 | – | 0.0886
in vitro model: cholesterol 0.05 mM, time point: terminal (~4-5 doublings, model-specific) | 0.132 | 0.919 | 0.632 | 0.298 | -0.123
in vitro model: cholesterol-high 0.2 mM, time point: constant (~7 days, model-specific) | 0.106 | 0.928 | 0.591 | 0.676 | -0.208
in vitro model: cholesterol-high 0.2 mM, time point: terminal (~4-5 doublings, model-specific) | 0.0964 | 1 | 0.631 | 0.816 | -0.69
in vitro model: dormancy (butyrate + nitrate, low O2), time point: constant (~7 days, model-specific) | 0.0762 | 0.892 | -0.213 | -1.07 | 0.195
in vitro model: dormancy (butyrate + nitrate, low O2), time point: terminal (~4-5 doublings, model-specific) | 0.0498 | 0.991 | -0.405 | -0.637 | -0.234
in vitro model: standard 7H9 glycerol, time point: constant = terminal | 0.116 | 0.964 | -0.193 | 0.585 | -0.211
in vitro model: valerate, time point: constant (~7 days, model-specific) | 0.136 | 0.884 | 0.762 | 1.18 | -0.0878
in vitro model: valerate, time point: terminal (~4-5 doublings, model-specific) | 0.097 | 0.925 | -0.0183 | 1.26 | -0.0377

CC[C@@H](CO)NCCN[C@@H](CC)CO [ethambutol] + CC(=O)NC[C@H]1CN(c2ccc(N3CCOCC3)c(F)c2)C(=O)O1 [linezolid]
Settings | AUC25, [4] | Einf, [3] | FIC50, [2] | FIC90, [1] | GRinf, [5]
in vitro model: acidic pH 5.7, time point: constant (~7 days, model-specific) | 0.0997 | 0.79 | 0.0133 | – | -0.243
in vitro model: acidic pH 5.7, time point: terminal (~4-5 doublings, model-specific) | 0.0783 | 0.957 | 1.24 | 0.495 | -0.168
in vitro model: intracellular J774, time point: constant = terminal | – | 0.948 | – | 0.585 | -0.511

Settings | AUC25, [4] | Einf, [3] | FIC50, [2] | FIC90, [1] | GRinf, [5]
in vitro model: butyrate, time point: constant (~7 days, model-specific) | 0.0872 | 0.88 | 0.492 | – | 0.121
in vitro model: butyrate, time point: terminal (~4-5 doublings, model-specific) | 0.0727 | 0.934 | 0.333 | 0.243 | 0.126
in vitro model: cholesterol 0.05 mM, time point: constant (~7 days, model-specific) | 0.151 | 0.741 | 0.049 | – | -0.189
in vitro model: cholesterol 0.05 mM, time point: terminal (~4-5 doublings, model-specific) | 0.155 | 0.952 | -0.615 | – | -0.325
in vitro model: cholesterol-high 0.2 mM, time point: constant (~7 days, model-specific) | 0.106 | 0.935 | 0.732 | – | -0.702
in vitro model: cholesterol-high 0.2 mM, time point: terminal (~4-5 doublings, model-specific) | 0.104 | 1 | 0.569 | 1.03 | -0.951
in vitro model: dormancy (butyrate + nitrate, low O2), time point: constant (~7 days, model-specific) | 0.125 | 0.811 | 0.653 | – | 0.461
in vitro model: dormancy (butyrate + nitrate, low O2), time point: terminal (~4-5 doublings, model-specific) | 0.106 | 0.943 | -0.181 | 0.335 | -0.432
in vitro model: standard 7H9 glycerol, time point: constant = terminal | 0.0844 | 0.892 | 0.485 | – | 0.15
in vitro model: valerate, time point: constant (~7 days, model-specific) | 0.091 | 0.817 | -0.233 | – | 0.187
in vitro model: valerate, time point: terminal (~4-5 doublings, model-specific) | 0.0651 | 0.909 | 0.293 | 0.0781 | 0.127
